One experiment has as its target T1, hLDH5 (LDH-A) (Homo sapiens, UniProt P00338).
T1 construct: purchased LEEBIO (USA)
Briefly: Enzyme inhibition of human lactate dehydrogenase isoform 5. The class given is biochemical. The settings on record: ranges of values; 37° C., pH 7.4; read-out: inhibitory activity against hLDH5 (Ki). How it is done: The compounds described in the examples were evaluated in enzymatic assays to assess its inhibitory properties against two human isoforms of lactate dehydrogenase, hLDH5 containing solely the subunit LDH-A (LEEBIO—USA), and the hLDH1 containing only the LDH subunits-B (Sigma Aldrich, USA), in order to verify the selectivity of these compounds.
(for Ki measurements). Such assays were conducted in cells containing 200 μL of a solution comprising the reagents dissolved in phosphate buffer (KH2PO4 and K2HPO4) at pH 7.4.
IC50 values were calculated as described below. […] Seven different concentrations (in duplicate for each concentration) of compound were used to generate a concentration-response curve. […] Compound solutions were dispensed in 96-well plates (8 μL), then substrate and cofactor dissolved in buffer (152 μl) and enzyme solution (40 μl) were finally added. Dilution of the enzyme stock solution was made to allow a 10% consumption of the cofactor after 15 min. The eventual background fluorescence of the tested compounds or quenching of the NADH fluorescence by the tested compounds was subtracted. In addition to the compound test wells, each plate contained maximum and minimum controls. Assay plates were incubated at room temperature for 15 min and the final measurements were performed using Victor X3 Microplates reader (PerkinElmer®) at a fluorescence emission wavelength of 460 nm (excitation at 340 nm). IC50 were generated using the curve-fitting tool of GraphPad Prism].
The resulting data of enzymatic kinetic (the constants of Michaelis-Menten) were determined by analysis of non-linear regression.
With `O=C(O)c1cc2c(C(F)(F)F)cc(-c3ccccc3)cc2n1O[C@@H]1O[C@H](CO)[C@@H](O)[C@H](O)[C@H]1O` [Example 2, 6-phenyl-1-(β-D-glucopyranosyl)oxy-4-(trifluoromethyl)-1H-indole-2-carboxylic acid], the Ki lay in the range of 10 to 100 µM. For the molecule `O=C(O)c1cc2c(C(F)(F)F)cc(-c3ccc(Cl)c(Cl)c3)cc2n1O` [Example 27, 6-(3,4-dichlorophenyl)-1-hydroxy-4-(trifluoromethyl)-1H-indole-2-carboxylic acid], the Ki was 1 to 10 µM. Consider `O=C(O)c1cc2c(C(F)(F)F)cc(-c3cc(Cl)ccc3Cl)cc2n1O` [Example 39, 6-(2,5-dichlorophenyl)-1-hydroxy-4-(trifluoromethyl)-1H-indole-2-carboxylic acid], for which the Ki was 5 to 25 µM. Consider `O=C(O)c1cc2c(F)cc(-c3ccccc3)cc2n1O` [Example 52, 4-fluoro-1-hydroxy-6-phenyl-1H-indole-2-carboxylic acid], for which the Ki was in the range of 5 to 25 µM.

The same experiment, now with this note: ranges of values; room temperature, pH 7.4; read-out: inhibitory activity against hLDH5 (IC50).
Take `CCOC(=O)c1cc2c(C(F)(F)F)cc(-c3ccccc3)cc2n1O[C@@H]1O[C@H](CO)[C@@H](O)[C@H](O)[C@H]1O` [Example 6, ethyl 6-phenyl-1-(β-D-glucopyranosyl)oxy-4-(trifluoromethyl)-1H-indole-2-carboxylate]: the IC50 was in the range of 50 to 500 µM. Take `COC(=O)c1cc2c(C(F)(F)F)cc(-c3ccccc3)cc2n1O[C@@H]1O[C@H](COC(C)=O)[C@@H](OC(C)=O)[C@H](OC(C)=O)[C@H]1OC(C)=O` [Example 5, methyl 6-phenyl-1-(β-d-2,3,4,6-tetra-O-acetylglucopyranosyl)oxy-4-(trifluoromethyl)-1H-indole-2-carboxylate]: the IC50 lay within 50 to 500 µM. Same read-out and setting: for `O=C(OCc1ccc(Cl)cc1)c1cc2c(C(F)(F)F)cc(-c3ccc(Cl)cc3Cl)cc2n1O` [Example 63, 4-chlorobenzyl 6-(2,4-dichlorophenyl)-1-hydroxy-4-(trifluoromethyl)-1H-indole-2-carboxylate] the value was 0.01 to 1 µM. In the case of `CCCCOC(=O)c1cc2c(C(F)(F)F)cc(-c3ccccc3)cc2n1O[C@@H]1O[C@H](COC(C)=O)[C@@H](OC(C)=O)[C@H](OC(C)=O)[C@H]1OC(C)=O` [Example 28, butyl 6-phenyl-1-(β-D-2,3,4,6-tetra-O-acetylglucopyranosyl)oxy-4-(trifluoromethyl)-1H-indole-2-carboxylate], the IC50 was over 100 µM. Still for that read-out and setting: under `COC(=O)c1c(C)c2c(C(F)(F)F)cc(-c3ccc(Cl)cc3Cl)cc2n1O` [Example 20, methyl 6-(2,4-dichlorophenyl)-1-hydroxy-3-methyl-4-(trifluoromethyl)-1H-indole-2-carboxylate] stands 1 to 10 µM; under `CN1CCC(OC(=O)c2cc3c(C(F)(F)F)cc(-c4ccccc4)cc3n2O)CC1` [Example 57, 1-methylpiperidin-4-yl 1-hydroxy-6-phenyl-4-(trifluoromethyl)-1H-indole-2-carboxylate], over 100 µM. As to `Cc1c(C(=O)O)n(O)c2cc(-c3ccc(Cl)cc3Cl)cc(C(F)(F)F)c12` [Example 26, 6-(2,4-dichlorophenyl)-1-hydroxy-3-methyl-4-(trifluoromethyl)-1H-indole-2-carboxylic acid], the IC50 lay in the range of 1 to 10 µM. `CCOC(=O)c1cc2c(C(F)(F)F)cc(-c3ccccc3)cc2n1O[C@@H]1O[C@H](COC(C)=O)[C@@H](OC(C)=O)[C@H](OC(C)=O)[C@H]1OC(C)=O` [Example 7, ethyl 6-phenyl-1-(β-d-2,3,4,6-tetra-O-acetylglucopyranosyl)oxy-4-(trifluoromethyl)-1H-indole-2-carboxylate]: the IC50 was over 100 µM.

Take `CC(C)(C)C1CCC(OC(=O)c2cc3c(C(F)(F)F)cc(-c4ccc(Cl)cc4Cl)cc3n2O)CC1` (stereo not shown) [Example 50, 4-(tert-butyl)cyclohexyl 6-(2,4-dichlorophenyl)-1-hydroxy-4-(trifluoromethyl)-1H-indole-2-carboxylate]: the IC50 is 0.01 to 1 µM.

Usually Ki stands for the dissociation constant of the complex between target and ligand, obtained from inhibition or displacement. A word on the IC50: it is the midpoint of a concentration-inhibition curve.

Source of the values: patent US20140343001A1, “INDOLE DERIVATIVES INHIBITORS OF ENZYME LACTATE DEHYDROGENASE (LDH)” (Universitá di Pisa, priority 2011, published 2014).
